This note sets out measurements from patent US6653300B2, “Pyrazole compounds useful as protein kinase inhibitors” (Vertex Pharmaceuticals Incorporated, priority 2000, dated 2003).

One data set deals with T1, GSK-3β (AA 1-420) (Homo sapiens, UniProt P49841).
T1 construct: GSK-3β (AA 1-420)
In words: Ki determination for the inhibition of GSK-3 (coupled enzyme system). The format is biochemical. The following applies: 20 μM ATP, 20 nM GSK-3β, 30° C. The method, then:
Compounds were screened for their ability to inhibit GSK-3β (AA 1-420) activity using a standard coupled enzyme system (Fox et al. (1998) Protein Sci. 7, 2249). Reactions were carried out in a solution containing 100 mM HEPES (pH 7.5), 10 mM MgCl2, 25 mM NaCl, 300 μM NADH, 1 mM DTT and 1.5% DMSO. Final substrate concentrations in the assay were 20 μM ATP (Sigma Chemicals, St Louis, Mo.) and 300 μM peptide (HSSPHQS (PO3H2) EDEEE, American Peptide, Sunnyvale, Calif.). Reactions were carried out at 30° C. and 20 nM GSK-3β. Final concentrations of the components of the coupled enzyme system were 2.5 mM phosphoenolpyruvate, 300 μM NADH, 30 μg/ml pyruvate kinase and 10 μg/ml lactate dehydrogenase.
An assay stock buffer solution was prepared containing all of the reagents listed above with the exception of ATP and the test compound of interest. The assay stock buffer solution (175 μl) was incubated in a 96 well plate with 5 μl of the test compound of interest at final concentrations spanning 0.002 μM to 30 μM at 30° C. for 10 min. […] The reaction was initiated by the addition of 20 μl of ATP (final concentration 20 μM). Rates of reaction were obtained using a Molecular Devices Spectramax plate reader (Sunnyvale, Calif.) over 10 min at 30° C. The Ki values were determined from the rate data as a function of inhibitor concentration.

Bounds are passed on as bounds.

T1 sequence (P49841 whole entry, the tested form may be a part): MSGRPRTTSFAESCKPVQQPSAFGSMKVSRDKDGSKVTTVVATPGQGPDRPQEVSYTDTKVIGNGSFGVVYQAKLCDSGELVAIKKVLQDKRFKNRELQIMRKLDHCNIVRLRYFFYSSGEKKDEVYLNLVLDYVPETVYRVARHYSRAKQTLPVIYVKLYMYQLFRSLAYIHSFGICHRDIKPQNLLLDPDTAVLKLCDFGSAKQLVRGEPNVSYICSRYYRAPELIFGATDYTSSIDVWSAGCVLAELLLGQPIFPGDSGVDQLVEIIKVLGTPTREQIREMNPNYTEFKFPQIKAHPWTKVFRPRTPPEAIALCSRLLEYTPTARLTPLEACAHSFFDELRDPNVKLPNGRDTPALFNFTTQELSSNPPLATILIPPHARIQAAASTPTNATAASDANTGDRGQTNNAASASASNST

In the case of `COC(=O)c1cccc(Sc2nc(Nc3cc(C4CC4)[nH]n3)cc(-c3ccccc3)n2)c1` [IIIa-2, (5-Cyclopropyl-2H-pyrazol-3-yl)-[2-(3-methoxycarbonyl-phenylylsulfanyl)-6-phenylpyrimidin-4-yl]-amine], the melting point was in the range of 126 to 129 °C. At GSK-3β (AA 1-420), this compound registered a Ki below 100 nM.

Turning to `c1ccc2cc(Sc3nccc(Nc4cc(C5CC5)[nH]n4)n3)ccc2c1` [IIIa-3, (5-Cyclopropyl-2H-pyrazol-3-yl)-[2-(naphthalen-2-ylsulfanyl)-pyrimidin-4-yl]-amine], the melting point is 248 to 250 °C. The Ki on GSK-3β (AA 1-420) is below 100 nM.

In the case of `Cc1nc(Sc2ccc3ccccc3c2)nc(Nc2cc(C3CC3)[nH]n2)c1C` [IIIa-4, (5-Cyclopropyl-2H-pyrazol-3-yl)-[5,6-dimethyl-2-(naphthalen-2-ylsulfanyl)-pyrimidin-4-yl]-amine], the melting point is above 270 °C. The compound also showed a Ki at GSK-3β (AA 1-420) of 100 to 1000 nM.

The compound `Cc1cnc(Sc2ccc3ccccc3c2)nc1Nc1cc(C2CC2)[nH]n1` [IIIa-5, (5-Cyclopropyl-2H-pyrazol-3-yl)-[5-methyl-2-(naphthalen-2-ylsulfanyl)-pyrimidin-4-yl]-amine] registered a melting point of 197 °C. At GSK-3β (AA 1-420), the Ki was 100 to 1000 nM.

Regarding `Cc1cc(Nc2cc(C3CC3)[nH]n2)nc(Sc2ccc3ccccc3c2)n1` [IIIa-6, (5-Cyclopropyl-2H-pyrazol-3-yl)-[6-methyl-2-(naphthalen-2-ylsulfanyl)-pyrimidin-4-yl]-amine], the melting point was 232 °C. Moreover, the Ki on GSK-3β (AA 1-420) was below 100 nM.

On to `c1ccc2cc(Sc3nc(Nc4cc(C5CC5)[nH]n4)cc(N4CCOCC4)n3)ccc2c1` [IIIa-7, (5-Cyclopropyl-2H-pyrazol-3-yl)-[6-(morpholin-4-yl)-2-(naphthalen-2-ylsulfanyl)-pyrimidin-4-yl]-amine], for which the melting point fell in the range of 118 to 120 °C. The same compound had a Ki on GSK-3β (AA 1-420) of 100 to 1000 nM.

`CN1CCN(c2cc(Nc3cc(C4CC4)[nH]n3)nc(Sc3ccc4ccccc4c3)n2)CC1` [IIIa-8, (5-Cyclopropyl-2H-pyrazol-3-yl)-[6-(1-methylpiperazin-4-yl)-2-(naphthalen-2-ylsulfanyl)-pyrimidin-4-yl]-amine] returned a melting point of 113 to 115 °C. Also, the Ki on GSK-3β (AA 1-420) was 100 to 1000 nM.

`Cc1cc(Nc2cc(-c3ccccc3C)nc(Sc3ccc4ccccc4c3)n2)n[nH]1` [IIIa-10, [6-(2-Methylphenyl)-2-(naphthalen-2-ylsulfanyl)-pyrimidin-4-yl]-(5-methyl-2H-pyrazol-3-yl)-amine]: the melting point was 211 to 214 °C. Moreover, the Ki on GSK-3β (AA 1-420) is 100 to 1000 nM.

For `Cc1cc(Nc2cc(-c3ccccc3)nc(Sc3ccc4ccccc4c3)n2)n[nH]1` [IIIa-12, (5-Methyl-2H-pyrazol-3-yl)-[2-(naphthalen-2-ylsulfanyl)-6-phenyl-pyrimidin-4-yl]-amine], the melting point lay in the range of 237 to 239 °C.

Consider `Cc1cc(Nc2cc(-c3ccccc3)nc(Sc3ccc(NC(=O)C4CC4)cc3)n2)n[nH]1` [IIIa-16, [2-(4-Cyclopropanecarbonylamino-phenylsulfanyl)-6-phenylpyrimidin-4-yl]-(5-methyl-2H-pyrazol-3-yl)-amine], for which the melting point was 253 to 255 °C. On GSK-3β (AA 1-420), this compound registered a Ki of 1000 to 7000 nM.

`CCCS(=O)(=O)Nc1ccc(Sc2nc(Nc3cc(C)n[nH]3)cc(-c3ccccc3)n2)cc1` [IIIa-17, (5-Methyl-2H-pyrazol-3-yl)-{6-phenyl-2-[4-(propane-1-sulfonylamino)-phenylsulfanyl]-pyrimidin-4-yl}-amine] returned a melting point of 232 to 235 °C. On GSK-3β (AA 1-420), this compound had a Ki below 100 nM.

`CCS(=O)(=O)Nc1ccc(Sc2nc(Nc3cc(C)[nH]n3)cc(-c3ccccc3)n2)cc1` [IIIa-18, [2-(4-Ethanesulfonylamino-phenylsulfanyl)-6-phenyl-pyrimidin-4-yl]-(5-methyl-2H-pyrazol-3-yl)-amine] had a melting point of 251 to 254 °C. The compound further displayed a Ki at GSK-3β (AA 1-420) below 100 nM.

As to `Cc1cc(Nc2cc(-c3ccccc3)nc(Sc3ccc(NC(=O)CC(C)C)cc3)n2)n[nH]1` [IIIa-20, [2-(4-Isobutanecarbonylamino-phenyl-sulfanyl)-6-phenyl-pyrimidin-4-yl]-(5-methyl-2H-pyrazol-3-yl)-amine], the melting point lay within 241 to 243 °C.

`COc1ccc(-c2cc(Nc3cc(C)[nH]n3)nc(Sc3ccc(NC(C)=O)cc3)n2)cc1` [IIIa-22, [2-(4-Acetamido-phenyl-sulfanyl)-6-(4-methoxyphenyl)-pyrimidin-4-yl]-(5-methyl-2H-pyrazol-3-yl)-amine] yielded a melting point of 241 to 245 °C. Moreover, the Ki at GSK-3β (AA 1-420) is 100 to 1000 nM.

In the case of `CC(=O)Nc1ccc(Sc2nc(Nc3cc(C)[nH]n3)cc(-c3cccc(NC(C)=O)c3)n2)cc1` [IIIa-23, [6-(3-Acetamidophenyl)-2-(4-acetamido-phenyl-sulfanyl)-pyrimidin-4-yl]-(5-methyl-2H-pyrazol-3-yl)-amine], the melting point is 227 to 230 °C. This compound yielded a Ki on GSK-3β (AA 1-420) of 100 to 1000 nM.

On to `COCc1cc(Nc2cc(C)[nH]n2)nc(Sc2ccc(C(=O)OC)cc2)n1` [IIIa-39, [2-(4-Methoxycarbonyl-phenyl-sulfanyl)-6-methoxymethyl-pyrimidin-4-yl]-(5-methyl-2H-pyrazol-3-yl)-amine], for which the melting point was 204 to 205 °C.

The compound `c1ccc(Nc2nc(Nc3cc(C4CC4)[nH]n3)cc(-c3ccccc3)n2)cc1` [IIIc-2, (5-Cyclopropyl-2H-pyrazol-3-yl)-(6-phenyl-2-phenylamino-pyrimidin-4-yl)-amine] gave a melting point of 267 to 269 °C.

The compound `Cc1cccc(Nc2nc(Nc3cc(C4CC4)[nH]n3)cc(-c3ccccc3)n2)c1` [IIIc-3, (5-Cyclopropyl-2H-pyrazol-3-yl)-[2-(3-methylphenylamino)-6-phenyl-pyrimidin-4-yl]-amine] displayed a melting point of 267 to 270 °C.

As to `c1ccc(-c2cc(Nc3cc(C4CC4)[nH]n3)nc(NCc3cccnc3)n2)cc1` [IIIc-5, (5-Cyclopropyl-2H-pyrazol-3-yl)-[6-phenyl-2-(pyridin-3-ylmethylamino)-pyrimidin-4-yl]-amine], the melting point was in the range of 191 to 193 °C.

For the compound `Cc1cc(Nc2nc(Sc3nc4ccccc4[nH]3)nc3ccccc23)n[nH]1` [IIa-19, [2-(Benzimidazol-2-ylsulfanyl)-quinazolin-4-yl]-(5-methyl-2H-pyrazol-3-yl)-amine], the melting point lay in the range of 192 to 196 °C.

As to `c1ccc2c(Sc3nc(Nc4cc(C5CC5)n[nH]4)c4ccccc4n3)cccc2c1` [IIa-37, (5-Cyclopropyl-2H-pyrazol-3-yl)-[2-(naphthalen-1-ylsulfanyl)-quinazolin-4-yl]-amine], the melting point lay in the range of 271 to 273 °C.

`CC(=O)Nc1ccc(Sc2nc(Nc3cc(C)n[nH]3)c3cccc(F)c3n2)cc1` [IIa-78, [2-(4-Acetamidophenylsulfanyl)-8-fluoro-quinazolin-4-yl]-(5-methyl-2H-pyrazol-3-yl)-amine] had a melting point of 257 to 259 °C.

In the case of `Cc1cc(Nc2nc(N(CCO)c3ccccc3)nc3ccccc23)n[nH]1` [IIc-1, {2-[(2-Hydroxyethyl)phenylamino]-quinazolin-4-yl}-(5-methyl-2H-pyrazol-3-yl)-amine], the melting point was found to be 217 °C.

In turn, `Cc1cc(Nc2nc(Nc3ccc4cn[nH]c4c3)nc3ccccc23)n[nH]1` [IIc-9, [2-(1H-Indazol-6-ylamino)-quinazolin-4-yl]-(5-methyl-2H-pyrazol-3-yl)-amine] yielded a melting point above 250 °C.

The Ki is a measure of affinity in units of concentration, obtained from inhibition or displacement. Low readings indicate a stronger hold on the target, high ones a looser hold on the target. Usually melting point stands for the temperature, or range, at which the solid turns liquid.
